Test results taken from patent publication US20180116976A1, “METHODS AND COMPOSITIONS FOR UNWANTED OR ABNORMAL MUSCLE CONTRACTIONS” (Flex Pharma, Inc., priority 2015, published 2018).

Columns and labels:
[1] = test system: human dorsal root ganglion neurons; assay: Calcium flux (ΔF/F) in human dorsal root ganglion neurons ex vivo, TRPV1/TRPA1 activation; format: cell-based; conditions: calcium-sensitive dye, FIG. 1
Experimental: Selective TRPV1 and TRPA1 activation responses were measured for exemplary compositions of the invention in human dorsal root ganglion neurons ex vivo and compared with TRPV1/TRPA1 co-activation responses. The degree of neuron activation was assessed by inward calcium flux using neurons preloaded with a calcium-sensitive fluorescent dye. Intracellular cellular calcium levels were then monitored by wide-field fluorescent microscopy. The change in intracellular fluorescence relative to baseline fluorescence (ΔF/F) was quantified, and the results are shown in FIG. 1.

[2] = test system: flexor hallucis brevis muscle; assay: Electrically induced flexor hallucis brevis cramp, surface EMG AUC over 140 seconds, additional beverage study (Example 3); format: in vivo, human; conditions: 29 mg, 140 second observation period; FIG. 10
Experimental: An additional study was carried out comparing exemplary compounds and combinations thereof as summarized in Table 3 below, each administered as a beverage formulation.
Cramp intensity was assessed by integrating the area under the curve (AUC) of a surface EMG signal over a 140 second observation period post electrical induction of a cramp in the flexor hallucis brevis muscle as previously described. […] The overall change between the pre-treatment baseline and mean vehicle control response was minimal.

[3] = test system: flexor hallucis brevis muscle; assay: Externally-induced cramping of the flexor hallucis brevis muscle, 6-shogaol orally disintegrating tablet (Example 4); format: in vivo, human; conditions: ODT
Experimental: The goal of this study was to assess the effectiveness of 6-shogaol formulated as an orally disintegrating tablet (ODT) in the prevention of externally-induced cramping of the flexor hallucis brevis muscle of the foot. The study was carried in two parts. The first part was an open label, placebo-controlled, 5-visit study evaluating vehicle (lactose and sucrose), 0.5 mg, 2.5 mg, 10/6.9 mg, and 40/33 mg 6-shogaol. The second part was a randomized, single-blind, placebo-controlled, 4-visit study evaluating vehicle (lactose and sucrose), 0.5 mg, 20/18.5 mg, and 60/55.5 mg 6-shogaol. Screening of subjects occurred within 28 days in a similar manner as described above in Example 1. Note that dosage values separated by a “/” indicate the nominal versus the actual doses as determined by Chromadex.
The collected EMG data was analyzed for the baseline adjusted integrated EMG (IEMG) level, also referred to as area under the curve (AUC), and cramp duration, as described in Example 1. FIG. 11 and FIG. 12 summarize the average change and ratio in AUC values for all subjects compared by administered treatment both parts of the study. […] The data in FIG. 15 and FIG. 16 further support these findings.

Row | Compound | neuron activation response, change in intracellular fluorescence relative to baseline (ΔF/F) [1] | decrease in cramp intensity compared to other treatments tested [2] | reduction in AUC compared to its study specific vehicle control [2] [fold] | cramp inhibition ([3]; 0.5 mg dosage level) | cramp inhibition ([3]; 2.6 mg dosage level) | cramp inhibition ([3]; 6.9 mg) | time over which cramp inhibition was sustained ([3]; 33 mg and 55 mg dosage levels) [h] | cramp inhibition ([3]; 33 mg dosage level) [%] | cramp inhibition ([3]; 55 mg dosage level) [%]
1 | CCCCCC(O)CC(=O)CCc1ccc(O)c(OC)c1 (stereo not shown) [Treatment 6-gingerol, 6-gingerol] | synergistic response |  |  |  |  |  |  |  | 
2 | CCCCC/C=C/C(=O)CCc1ccc(O)c(OC)c1 [Treatment 6-shogaol, 6-shogaol] | synergistic response | greater decrease | 5 | no efficacy | no efficacy | roughly 40% | ≥ 8 | 75 | 75
